O=C(Nc1ccc(F)cc1F)c1cccnc1Oc1cccc(C(F)(F)F)c1
solubility (mole fraction)
Conditions	278.15 K	283.15 K	288.15 K	293.15 K	298.15 K	303.15 K	308.15 K	313.15 K	318.15 K	323.15 K
in DMF	0.000523	0.000679	0.000847	0.00104	0.00127	0.00153	0.00182	0.00213	0.00255	0.00298
in ethanol	0.000244	0.000319	0.000425	0.000537	0.000683	0.000901	0.00111	0.00142	0.00176	0.00216
in ethylene glycol	1.42e-05	1.76e-05	2.25e-05	2.71e-05	3.28e-05	3.89e-05	4.62e-05	5.41e-05	6.34e-05	7.49e-05
in propylene glycol	4.63e-05	5.76e-05	7.29e-05	9.02e-05	0.000108	0.000129	0.000152	0.00018	0.000209	0.000245
in water	1.45e-07	2.02e-07	2.68e-07	3.33e-07	4.08e-07	4.98e-07	6.05e-07	7.25e-07	8.72e-07	1.04e-06
